Measured values taken from patent publication US10869900B2, “Composition and products comprising senescent cells for use in tissue regeneration” (QRSkin GmbH, priority 2015, dated 2020).

Tested on: Human primary keratinocyte BKB10002 cells
Assay: Senescence induction by surfactant, β-Gal staining
Format: cell-based
Details: 2 uM NP40 for 14 days, EpiLife medium+S7 supplement, medium change every second day
Experimental: Human primary keratinocyte BKB10002 cells were treated with the surfactant NP40 in order to induce senescence. Cells were grown in EpiLife medium+S7 supplement without (control) or with 2 uM NP40 for 14 days with a medium change every second day. […] Protein concentrations in the supernatants of the cell cultures were quantified using the Bio-Plex® Multiplex Immunoassays or ELISA kits from BIO-RAD.

Substance: NP40
- cells showing a positive β-Gal staining: 11%
